Assay results taken from patent US20210322509A1, “Methods for Reducing Perinatal Morbidity and / or Mortality” (CHU SAINTE-JUSTINE, priority 2016, published 2021).
Non-standard residues stand in square brackets, D forms with d. Residues, ends and D or L forms follow the SMILES beside them. ξ: configuration not given here. dThr(3ξ) = CC(O)[C@@H](N)C(=O)O

How the values were obtained:
[1] = system: IL-1β, IL-6, IL-8 and PGF2α in amniotic fluid; assay: ELISA of pro-inflammatory mediators in amniotic fluid 24 h after IL-1β injection; format: in vivo, mice; settings: for levels of all pro-inflammatory mediators (IL-1β, IL-6, IL-8, PGF2α) in amniotic fluid: relative to vehicle
Procedure: FIGS. 2A to 2D show the levels of the pro-inflammatory mediators IL-1β (FIG. 2A), IL-6 (FIG. 2B), IL-8 (FIG. 2C) and PGF2a (FIG. 2D) in the amniotic fluid (AF) collected 24 h after IL-1β injection and treatment with vehicle, Compound 1 or Kineret, as assessed by ELISA. One-way ANOVA compared to IL-1β+Veh. **p<0.01, ***p<0.001. STATS: n=4; 4 gestational sacs from 2 animals in each groups.
Intrauterine […] perinatal inflammation model. Timed-pregnant CD-1 mice at 16.5 days of gestation were steadily anesthetized with an isoflurane mask. After body hair removal from the peritoneal area, a 1.5 cm-tall median incision was performed with surgical scissors in the lower abdominal wall. The lower segment of the right uterine horn was then exposed and 1 μg of IL-1β was injected between two fetal membranes with care of not entering the amniotic cavity. The abdominal muscle layer was sutured and the skin closed with clips. One hundred μL of Compound 1 (1 mg/Kg/12 h), Kineret® (4 mg/Kg/12 h) or vehicle (sterile water) was injected subcutaneously in the neck 30 minutes before stimulation with IL-1β (to allow distribution of drugs to target tissues). Mice delivery was assessed every hour until term (G19-G19.5). Immediately after delivery, neonatal survival was assessed. Some pregnant mice were sacrificed before birth (24 h after the surgery) to either 1) perform caesarean section and photograph fetuses; 2) collect amniotic fluids; and 3) collect placentas. Only tissues and fluids from gestational sacs closer to the cervical end of the uterus were collected to ensure proximity with the IL-1β injection site. Tissues and fluids were snap-frozen in liquid nitrogen and kept at −80° C. for subsequent RNA purification or protein quantification by ELISA.
Murine ELISA assays. […] The enzymatic reaction was stopped after 30 minutes and the plate was read at 450 nm, with wavelength correction set to 570 nm.

[2] = system: IL-1β, IL-6, IL-8 and PGF2α in neonatal intestines; assay: ELISA of pro-inflammatory mediators in intestines of neonates; format: in vivo, mice; settings: neonates from IL-1β-treated dams; for levels of gut IL-6: relative to control
Procedure: FIGS. 5A to 5D show the levels of the pro-inflammatory mediators IL-1p (FIG. 5A), IL-6 (FIG. 5B), IL-8 (FIG. 5C) and PGF2a (FIG. 5D) in the intestines of neonates from sham and IL-1β-treated dams administered with vehicle, Compound 1 or Kineret, as assessed by ELISA. One-way ANOVA compared to IL-1β+Veh. *p<0.05. n=4 pups in each groups.
Murine ELISA assays. The ELISA assay was performed using mouse Quantikine™ ELISA kits against IL-1β or IL-6 (R&D Systems®; #MLBOOC, M6000B), IL-8 and PGF2α (MyBioSource®; #MBS261967, #MBS264160) according to the manufacturer's instructions. Briefly, tissues (lungs, intestines and brains) collected at birth were homogenized in RIPA buffer containing proteases and 50 μL of either lung, intestine, or brain samples, recombinant mouse IL-1β, IL-6, IL-8 or PGF2α positive control or decreasing concentrations of a recombinant mouse IL-1β, IL-6, IL-8 or PGF2α standard were loaded into a 96-well plate pre-coated with a monoclonal anti-mouse IL-1β antibody and incubated for 2 hours at ambient temperature. Wells were washed 5 times and incubated with an enzyme-linked mouse polyclonal antibody specific to murine IL-1β for 2 hours. After another washing step, a substrate solution was added. The enzymatic reaction was stopped after 30 minutes and the plate was read at 450 nm, with wavelength correction set to 570 nm.

[3] = system: pregnant C57Bl/6 mice given LPS; assay: Perinatal outcomes after maternal LPS (gestation length, perinatal survival, birth weight); format: in vivo
Procedure: The timing of birth (FIG. 11A); the number of viable pups per litter at birth (FIG. 11B); the proportion of pups surviving to one week (FIG. 11C), and birth weight at 12-24 h (FIG. 11D) were recorded (all mean±SEM). The number of treated dams in each group is shown in parentheses (n=10 per group, with n=48-57 pups weighed per group at birth) and data were analysed by ANOVA and post-hoc Sidak t-test; *P<0.05.
Animal and treatments. […] Mice were monitored via video recording until the time of parturition. Gestation length and perinatal survival (number of live pups at birth and % pups surviving to one week) were recorded. Pups were weighed at 12-24 h after birth.

[4] = LPS gd 16.5 + compound 2 1 mg/kg i.p. at 12 h intervals, 4 doses

Compound	levels of all pro-inflammatory mediators (IL-1β, IL-6, IL-8, PGF2α) in amniotic fluid [1]	increased IL-1β and IL-8 in neonatal intestines [2]	levels of gut IL-6 [2]	LPS-induced death in the first week of life [3, 4]	LPS-induced perinatal loss (number of viable pups at birth) [3, 4]	LPS-induced prematurity (gestation length) [3, 4]	perinatal outcomes ([3]; compound 2 alone, in the absence of LPS)	pup weight at 12-24 h after birth ([3]; compound 2 with or without LPS treatment)	IL-8 levels in amniotic fluid, extent of effect ([1]; compared with compound 1)
CC(C)C[C@@H](NC(=O)[C@@H](CCC(=O)O)NC(=O)[C@H](NC(=O)[C@H](NC(=O)[C@@H](Cc1ccc(O)cc1)NC(=O)[C@H](N)CCCNC(=N)N)C(C)O)C(C)C)C(=O)N[C@H](C)C(N)=O (stereo partly drawn) [compound 1] (H-[dR][dY][dThr(3ξ)][dV][dE][dL][dA]-NH2)	significant reduction	alleviated this effect	clear trend toward decreased levels	–	–	–	–	–	–
CC(C)C[C@@H](NC(=O)[C@@H](CCC(=O)O)NC(=O)[C@H](NC(=O)[C@H](NC(=O)[C@@H](Cc1ccc(O)cc1)NC(=O)[C@H](N)CCCNC(=N)N)C(C)O)C(C)C)C(=O)N[C@H](C)C(=O)O (stereo partly drawn) [compound 2] (H-[dR][dY][dThr(3ξ)][dV][dE][dL][dA]-OH)	–	–	–	completely reversed	completely reversed	completely reversed	did not alter perinatal outcomes	no significant effect	–
Kineret: recombinant form of the human interleukin-1 receptor antagonist (IL-1Ra), purchased from Swedish Orphan Biovitrum AB	only had a significant effect on IL-8 levels	–	not observed	–	–	–	–	–	at a lower extent relative to compound 1
